No end group written: not given here.
How the values were obtained:
B3Z T-cells = format: cell-based, murine
[1] = mouse, plasma

LEQLESIINFEKLAAAAAK [UU-10, reference compound]
T-cell activation after BMDC incubation with antibody constructs and the peptide (B3Z T-cells): did not give rise to T-cell activation

FIGITELKKLESKINKVFAVGALKVPRNQDWLGVPRQL [UU-30]
half-life [1]: 20 min

FIGITELKKLESKINKVFLEQLESIINFEKLAAAAAK [UU-05]
T-cell activation after BMDC incubation with antibody constructs and the peptide (B3Z T-cells): resulted in T-cell activation
